Consider 13 molecules from US20260176260A1, “DUAL RAF AND TUBULIN INHIBITORS AND METHODS OF USE THEREOF” (Deciphera Pharmaceuticals, LLC, priority 2023, published 2026).

One experiment has as its target T1, B-Raf kinase (Homo sapiens, UniProt P15056).
T1 construct: purchased Sigma
Nature of the experiment: Biochemical assay for B-Raf (coupled pyruvate kinase/lactate dehydrogenase). Particulars: Table 1, inhibition of biochemical activity; read-out: BRAF.

The next experiment concerns the target T2, C-Raf kinase (Homo sapiens, UniProt P04049, Y340D/Y341D).
T2 construct: C-Raf residues 306-end; Y340D, Y341D with N-; purchased Sigma
Kind of experiment: Biochemical assay for C-Raf (coupled pyruvate kinase/lactate dehydrogenase). Particulars: Table 1, inhibition of biochemical activity; read-out: CRAF.

A further experiment concerns MiaPaca-2 cells. Kind of experiment: MiaPaca-2 cell proliferation assay (resazurin). Format: cell-based. Particulars: Homo sapiens, MIA PaCa-2; Table 2, inhibition of cell proliferation; read-out: MiaPaca-2. The procedure: MiaPaca-2 cells (catalog #CRL-1420) are obtained from the American Type Culture Collect (ATTC, Manassas, VA). Briefly, cells were grown in DMVEM supplemented with […] fetal bovine serum (Invitrogen, Carlsbad, CA), 2.5% New Zealand sourced horse serum and 1% Penicillin/Streptomycin/L-Glutamine at 37° C., […], and […]. Cells are expanded until reaching […] at which point they are sub-cultured or harvested for assay use. For assays completed in 96-well plates, a serial dilution of test compound is dispensed into a 96-well black clear bottom plate in triplicate. Three thousand cells are added per well in 200 μL complete growth medium in the 96-well plate. Plates are incubated for 67 to 72 h at 37° C., 5% CO2, and 95% humidity. At the end of the incubation, 40 μL of a […] solution of resazurin (Sigma, St. Louis, MO) in PBS is added to each well of the plate and plates are incubated for an additional 5 to 6 h at 37° C., 5% CO2, and 95% humidity. For 384-well assays, a threefold, 8-point serial dilution of compound was spotted column wise into a 384 well black, clear bottom, tissue culture treated plate using the Beckman Coulter Echo 650. Likewise, a threefold, 8-point serial dilution of cobimetinib was spotted row wise into the 384 well black, clear bottom plate containing compound. DMSO concentration was constant across all wells at 0.4%. Seven hundred fifty cells are added per well in 50 μL complete growth medium in each 384-well plate. Plates are incubated for 67 to 72 h at 37° C., 5% CO2, and 95% humidity. At the end of the incubation, 10 μL of a 440 μM solution of resazurin (Sigma, St. Louis, MO) in PBS is added to each well of the plate and plates are incubated for an additional 4 to 6 h at 37° C., 5% CO2, and 95% humidity. Plates are read on a Synergy2 or equivalent reader (Biotek, Winooski VT) using an excitation of 540 nm and an emission of 600 nm. Data is analyzed using Prism software (Graphpad, San Diego, CA) to calculate IC50 values.

The next experiment relates to HCT-116 cells. Kind of experiment: HCT-116 cell proliferation assay (resazurin). Format: cell-based. Particulars: Homo sapiens; Table 2, inhibition of cell proliferation; read-out: HCT-116. The method, then: HCT-116 cells (catalog #CCL-247) are obtained from the American Type Culture Collect (ATCC, Manassas, VA). Briefly, cells are grown in McCoy's 5A supplemented with 10% characterized fetal bovine serum (Invitrogen, Carlsbad, CA) and 1% Penicillin/Streptomycin/L-Glutamine at 37° C., 5% CO2, and 95% humidity. Cells are expanded until reaching 70-95% confluency at which point they are sub-cultured or harvested for assay use. A serial dilution of test compound is dispensed into a 384-well black clear bottom plate in triplicate. 375 cells are added per well in 50 μL complete growth medium in the 384-well plate. Plates are incubated for 67 to 72 h at 37° C., 5% CO2, and 95% humidity. At the end of the incubation, 40 μL of a […] solution of resazurin (Sigma, St. Louis, MO) in PBS is added to each well of the plate and plates are incubated for an additional 4 to 5 h at 37° C., 5% CO2, and 95% humidity. Plates are read on a Synergy2 or equivalent reader (Biotek, Winooski, VT) using an excitation of 540 nm and an emission of 600 nm. Data is analyzed using Prism software (Graphpad, San Diego, CA) to calculate IC50 values.
On the technique in general: Alamar Blue is a resazurin reagent that responds to reducing activity.

In a further experiment the test system is HPAF-II cells. Kind of experiment: HPAF-II cell proliferation assay (resazurin). Particulars: Homo sapiens; Table 2, inhibition of cell proliferation; read-out: HPAF-II. The format is cell-based. The method, then: (§1) HPAF-II cells (catalog #CRL-1997) are obtained from the American Type Culture Collect (ATCC, Manassas, VA). Briefly, cells are grown in Minimum Essential Media supplemented with 10% characterized fetal bovine serum (Invitrogen, Carlsbad, CA) and 1% Penicillin/Streptomycin/L-Glutamine at 37° C., 5% CO2, and 95% humidity. Cells are expanded until reaching 70-95% confluency at which point they are sub-cultured or harvested for assay use. A serial dilution of test compound is dispensed into a 384-well black clear bottom plate in triplicate. 750 cells are added per well in 50 μL complete growth medium in the 384-well plate. Plates are incubated for 115 to 120 h at 37° C., 5% CO2, and 95% humidity. At the end of the incubation, 40 μL of a […] solution of resazurin (Sigma, St. Louis, MO) in PBS is added to each well of the plate and plates are incubated for an additional 18 to 24 h at 37° C., 5% CO2, and 95% humidity. Plates are read on a Synergy2 or equivalent reader (Biotek, Winooski, VT) using an excitation of 540 nm and an emission of 600 nm. Data is analyzed using Prism software (Graphpad, San Diego, CA) to calculate IC50 values.

The subject of the next experiment is Pa16c cells. Kind of experiment: Pa16c cell proliferation assay (resazurin). The format is cell-based. Particulars: Table 2, inhibition of cell proliferation. The procedure:
as §1, with “Pa16c” for “HPAF-II”, “cells” for “cells (catalog #CRL-1997)”, “Dr. Channing Der, University of North Carolina at Chapel Hill.” for “the American Type Culture Collect (ATCC, Manassas, VA).”, “Dulbecco's Modified Eagle Medium” for “Minimum Essential Media”, “67” for “115”, “72” for “120”

T2 sequence (P04049 307-648 Y340D/Y341D): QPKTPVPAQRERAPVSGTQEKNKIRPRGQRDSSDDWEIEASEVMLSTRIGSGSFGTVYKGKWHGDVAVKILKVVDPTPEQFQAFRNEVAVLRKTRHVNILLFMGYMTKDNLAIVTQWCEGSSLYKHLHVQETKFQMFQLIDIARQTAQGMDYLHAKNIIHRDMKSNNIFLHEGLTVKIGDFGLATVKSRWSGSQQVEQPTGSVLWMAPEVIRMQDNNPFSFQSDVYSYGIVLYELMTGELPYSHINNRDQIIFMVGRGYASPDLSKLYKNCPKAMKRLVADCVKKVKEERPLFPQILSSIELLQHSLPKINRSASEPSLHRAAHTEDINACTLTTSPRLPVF
T1 sequence (P15056 416-766): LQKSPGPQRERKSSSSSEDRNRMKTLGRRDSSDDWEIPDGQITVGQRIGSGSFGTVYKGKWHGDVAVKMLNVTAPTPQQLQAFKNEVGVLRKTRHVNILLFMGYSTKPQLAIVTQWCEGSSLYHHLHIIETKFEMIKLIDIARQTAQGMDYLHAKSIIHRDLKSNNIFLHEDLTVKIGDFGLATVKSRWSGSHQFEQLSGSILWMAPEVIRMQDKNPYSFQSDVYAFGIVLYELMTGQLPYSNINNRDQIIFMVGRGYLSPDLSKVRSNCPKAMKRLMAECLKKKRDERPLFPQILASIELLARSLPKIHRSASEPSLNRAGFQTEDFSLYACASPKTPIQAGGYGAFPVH

Consider `CNC(=O)c1cc(-c2cc(-c3cc(NC(=O)c4cc(Cl)cnn4)ccc3C)ccn2)ccn1` [Example 36], for which the IC50 on B-Raf kinase was 100 to 500 nM; on C-Raf kinase it was less than 100 nM; in the experiment on MiaPaca-2 cells it was 500 to 1000 nM; in the experiment on HCT-116 cells it was 500 to 1000 nM; in the experiment on HPAF-II cells, 1000 to 10000 nM; in the experiment with Pa16c cells, 1000 to 10000 nM.

Turning to `CCc1ccc(NC(=O)c2cc(C(F)(F)F)cnn2)cc1-c1ccnc(-c2ccnc(C(=O)NC)c2)c1` [Example 37], the IC50 at B-Raf kinase, on C-Raf kinase, in the experiment with MiaPaca-2 cells, in the experiment with HCT-116 cells, in the experiment with HPAF-II cells and in the experiment with Pa16c cells was 1000 to 10000 nM in each case.

In the case of `CNC(=O)c1cc(-c2cc(-c3cc(NC(=O)c4cc(C(C)(F)F)cnn4)ccc3C)cc(N[C@H](C)CO)n2)ccn1` [Example 38], the IC50 was less than 100 nM on B-Raf kinase; less than 100 nM on C-Raf kinase; 100 to 500 nM in the experiment with MiaPaca-2 cells; 100 to 500 nM with HCT-116 cells; 100 to 500 nM with HPAF-II cells; 100 to 500 nM in the experiment on Pa16c cells.

For the molecule `CNC(=O)c1cc(-c2cc(N[C@H](C)CO)nc(-c3cc(NC(=O)c4cc(C(F)(F)F)cnn4)ccc3C)n2)ccn1` [Example 39], the IC50 at B-Raf kinase was in the range of 100 to 500 nM; on C-Raf kinase, 100 to 500 nM; with MiaPaca-2 cells, 1000 to 10000 nM; in the experiment with HCT-116 cells it was 1000 to 10000 nM; with HPAF-II cells it was 1000 to 10000 nM; with Pa16c cells, 1000 to 10000 nM.

Turning to `CNC(=O)c1cc(-c2cc(-c3cc(NC(=O)c4cnc(C(F)(F)F)nc4)ccc3C)ccn2)ccn1` [Example 41], the IC50 at B-Raf kinase was in the range of 1000 to 10000 nM; at C-Raf kinase, 1000 to 10000 nM; in the experiment on MiaPaca-2 cells, 500 to 1000 nM; with HCT-116 cells it was 100 to 500 nM; in the experiment on HPAF-II cells it was 100 to 500 nM; with Pa16c cells it was 100 to 500 nM.

Take `CNC(=O)c1cc(-c2cc(-c3cc(NC(=O)c4cc(C(C)(F)F)cnn4)ccc3C)cc(NCCO)n2)ccn1` [Example 42]: the IC50 was less than 100 nM on B-Raf kinase; less than 100 nM on C-Raf kinase; less than 100 nM in the experiment with MiaPaca-2 cells; less than 100 nM in the experiment with HCT-116 cells; 100 to 500 nM in the experiment with HPAF-II cells; 100 to 500 nM with Pa16c cells.

Regarding `CNC(=O)c1cc(-c2cc(-c3cc(NC(=O)c4cc(C(C)(F)F)cnn4)ccc3C)cc(OCCO)n2)ccn1` [Example 43], the IC50 on B-Raf kinase was less than 100 nM; on C-Raf kinase, less than 100 nM; with MiaPaca-2 cells it was 500 to 1000 nM; in the experiment on HCT-116 cells it was 100 to 500 nM; with HPAF-II cells it was 100 to 500 nM; with Pa16c cells it was 100 to 500 nM.

Turning to `CNC(=O)c1cc(-c2cc(-c3cc(NC(=O)c4ccc(C(F)(F)F)nc4)ccc3C)cc(N[C@H](C)CO)n2)ccn1` [Example 44], the IC50 at B-Raf kinase was in the range of 100 to 500 nM; at C-Raf kinase, 100 to 500 nM; with MiaPaca-2 cells, 1000 to 10000 nM; with HCT-116 cells, 1000 to 10000 nM; with HPAF-II cells, 1000 to 10000 nM; in the experiment on Pa16c cells it was 1000 to 10000 nM.

On to `CNC(=O)c1cc(-c2cc(-c3cc(NC(=O)c4cnc(C(F)(F)F)nc4)ccc3C)cc(N[C@H](C)CO)n2)ccn1` [Example 45], for which the IC50 on B-Raf kinase lay within 100 to 500 nM; at C-Raf kinase, 100 to 500 nM; with MiaPaca-2 cells, 1000 to 10000 nM; with HCT-116 cells, 1000 to 10000 nM; in the experiment on HPAF-II cells, 1000 to 10000 nM; in the experiment with Pa16c cells it was 1000 to 10000 nM.

In the case of `CNC(=O)c1cc(-c2cncc(-c3cc(NC(=O)c4cc(C#N)cnn4)ccc3C)c2)ccn1` [Example 46], the IC50 on B-Raf kinase was 100 to 500 nM; at C-Raf kinase, 100 to 500 nM; in the experiment on MiaPaca-2 cells, 1000 to 10000 nM; in the experiment on HCT-116 cells, 500 to 1000 nM; in the experiment on HPAF-II cells, 1000 to 10000 nM; in the experiment on Pa16c cells, 1000 to 10000 nM.

For the molecule `CNC(=O)c1cc(-c2cc(-c3cc(NC(=O)c4cc(C(F)(F)F)cnn4)ccc3C)cc(NC)n2)ccn1` [Example 47], the IC50 at B-Raf kinase, on C-Raf kinase, with MiaPaca-2 cells, in the experiment with HCT-116 cells, in the experiment on HPAF-II cells and with Pa16c cells was less than 100 nM throughout.

`CNC(=O)c1cc(-c2cc(-c3cc(NC(=O)c4cc(C(F)(F)F)cnn4)ccc3C)cc(N)n2)ccn1` [Example 48]: the IC50 at B-Raf kinase was less than 100 nM; at C-Raf kinase, less than 100 nM; with MiaPaca-2 cells it was 500 to 1000 nM; with HCT-116 cells, 100 to 500 nM; with HPAF-II cells, 100 to 500 nM; in the experiment with Pa16c cells, 1000 to 10000 nM.

On to `CNC(=O)c1cc(-c2cc(-c3cc(NC(=O)c4cc(C#N)cnn4)ccc3C)cc(OCCO)n2)ccn1` [Example 49], for which the IC50 is less than 100 nM at B-Raf kinase; less than 100 nM on C-Raf kinase; 500 to 1000 nM in the experiment with MiaPaca-2 cells; 500 to 1000 nM in the experiment with HCT-116 cells; 500 to 1000 nM in the experiment on HPAF-II cells; less than 100 nM with Pa16c cells.
